Laboratory results from paper PMC2805240 (Journal of chemical information and modeling, 2009).

How the values were obtained:
[1] = target: anthrax toxin lethal factor (Bacillus anthracis, UniProt P15917); assay: biochemical
LF = details: read-out: IC50 in a LF enzyme assay; cited from earlier work
macrophage = details: cited from earlier work

Chain of anthrax toxin lethal factor (P15917 34-809 limits assumed): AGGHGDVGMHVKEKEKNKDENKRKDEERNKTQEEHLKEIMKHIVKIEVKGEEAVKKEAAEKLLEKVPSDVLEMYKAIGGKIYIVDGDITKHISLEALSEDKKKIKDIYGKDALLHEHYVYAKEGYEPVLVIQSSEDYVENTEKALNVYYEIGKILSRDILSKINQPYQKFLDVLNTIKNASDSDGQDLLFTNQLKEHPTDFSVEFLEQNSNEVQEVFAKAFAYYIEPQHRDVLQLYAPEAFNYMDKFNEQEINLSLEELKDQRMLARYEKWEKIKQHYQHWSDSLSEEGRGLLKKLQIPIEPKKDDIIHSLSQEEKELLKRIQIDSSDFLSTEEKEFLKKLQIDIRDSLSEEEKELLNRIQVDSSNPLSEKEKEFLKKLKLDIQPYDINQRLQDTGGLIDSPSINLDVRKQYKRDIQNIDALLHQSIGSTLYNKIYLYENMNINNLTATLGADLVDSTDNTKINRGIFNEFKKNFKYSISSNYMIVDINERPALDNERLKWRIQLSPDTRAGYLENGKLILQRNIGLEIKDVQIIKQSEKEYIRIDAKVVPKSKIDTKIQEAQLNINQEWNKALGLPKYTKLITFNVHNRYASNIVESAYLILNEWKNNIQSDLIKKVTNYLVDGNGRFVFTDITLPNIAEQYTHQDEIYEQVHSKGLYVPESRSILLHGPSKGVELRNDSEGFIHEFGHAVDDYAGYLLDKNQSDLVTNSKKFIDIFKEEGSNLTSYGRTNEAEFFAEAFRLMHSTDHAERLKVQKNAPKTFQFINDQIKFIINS

Compound	IC50 [1] [µM]	IC50 (LF) [µM]	IC50 (macrophage) [µM]
CNC(=O)[C@H](Cc1c[nH]c2ccccc12)NC(=O)[C@@H](CC(=O)NO)CC(C)C [GM6001/M364205, ilomastat]	10.2 ± 0.72		
Cc1cc(S(=O)(=O)N[C@@H](C(=O)NO)C2CCOCC2)ccc1F [compound 40, (2R)-2-[(4-fluoro-3-methylphenyl)sulfonylamino]-N-hydroxy-2-(tetrahydro-2H-pyran-4-yl)acetamide]		0.054	0.21
CCN(Cc1ccccc1)Cc1cc(Cl)ccc1O [compound 5421384, 2-[(benzyl(ethyl)amino)methyl]-4-chlorophenol]	67.5 ± 2		
CCN(Cc1ccccc1)Cc1cc(I)cc(I)c1O [compound 5426202, 2-[(benzyl(ethyl)amino)methyl]-4,6-diiodophenol]	49.5 ± 1.5		
CCN(Cc1ccccc1)Cc1cc(Br)ccc1O [compound 5428736, 2-[(benzyl(ethyl)amino)methyl]-4-bromophenol]	73.9 ± 4.5		
